The text below walks through data of paper PMC11724075, “Small-molecule-induced ERBB4 activation to treat heart failure” (Nature Communications, 2025).

Values joined by “and” are separate entries in the source; they are usually repeats but may differ in a detail not shown here. Identical values can stand only once.

Assay [1] deals with mouse model of AngII-induced myocardial fibrosis. Nature of the assay: AngII-induced myocardial fibrosis mouse model, 1 week, heart mRNA by RT-qPCR. The class given is in vivo. Here is the method:
Four weeks after implantation, cardiac ultrasound was performed, mice were euthanized, and hearts were collected. A similar set-up was used for the 1-week study (Alzet, model 1007D) in male mice (n = 9-10 mice in every group).
RNA was extracted using Nucleospin RNA XS (Macherey-Nagel, 740902.50) according to the manufacturer’s instructions. For cDNA synthesis, total RNA was added to a mixture containing buffer with random hexamers and reverse transcriptase enzyme (TaqMan reverse transcription reagents, Applied biosystems, N8080234) after which samples were incubated for 10 min at 25 °C, 30 min at 48 °C, and 5 min at 95 °C. RT-qPCR was performed on QuantStudio 3 Real-time PCR system (Applied Biosystems) using Taqman Universal PCR Master Mix (Applied Biosystems, 4304437) and Taqman primers according to the manufacturer’s instructions. Settings were as follows: […] followed by 10 min at 95 °C, 40 cycles (45 cycles for ERBB4) of denaturation at 95 °C for 15 s, and 1 min at 60 °C. All reactions were run in duplicate, and all data were normalized against housekeeping genes glyceraldehyde-3-phosphate dehydrogenase (GAPDH), beta-actin (ACTB), or phosphoglycerate kinase 1 (PGK1). Expression levels were calculated using the comparative cycle method and expressed as fold change (FC) to appropriate controls. The following TaqMan primers were used (Thermo Fisher Scientific): GAPDH (Hs02758991_g1, Mm99999915_g1 and Rn01775763_g1), PGK1 (Hs99999906_m1), ID2 (Hs04187239_m1), BMPR1B (Hs01010965_m1), CACNA2D4 (Hs00297782_m1), DUSP2 (Hs00358879_m1), NR4A1 (Hs00374226_m1), SGK1 (Hs00178612_m1), COL1A1 (Mm00801666_g1), COL3A1 (Hs00943809_m1 and Mm00802305_g1), ERBB4 (Hs00955525_m1 and Rn00572447_m1), ACTB (Mm02619580_g1) and ANP (Mm01255747_g1).
(In general: In qPCR the cycle at which signal appears reflects the starting amount.)

Another assay relates to Erbb4-null mice. Briefly: Acute high-dose DOX-induced cardiotoxicity, cTnI ELISA, female Erbb4-null mice. The arrangement: In vivo DOX experiment in male+female Erbb4-null mice with EF-1 (cTnI): unit not given here. Format: in vivo, mouse. Here is the method:
DOX (20 mg/kg; Pfizer, 4222) was administered intraperitoneally once on day 4 to induce cardiotoxicity. On day 7, mice were euthanized, serum samples were collected via the retrobulbar sinus and hearts were excised.
Floxed Erbb4 mice (Erbb4^f/f; C57BL/6N; 129-Erbb4tm1Fej/Mmucd, MMRRC, #010439-UCD) were crossed with CAGGCre-ER^TM mice (Jackson Laboratory, 004682) containing the Tg(CAG-cre/Esr1*)5Amc transgene that expresses Cre recombinase under the control of a chicken beta actin promoter/enhancer coupled to the human cytomegalovirus immediate-early gene enhancer, resulting in expression of tamoxifen-inducible Cre-ERT in most cell types. To induce Cre recombinase-mediated deletion of Erbb4, eleven-week-old female and male iCAGGCre-ER^TM/Erbb4^f/f mice were intraperitoneally injected with tamoxifen (Merck, T5648; 10 mg/kg; in corn oil) daily for 5 consecutive days.
Serum samples were centrifuged for 15 min (1000 × g) at 4 °C and analyzed using a mouse cardiac Troponin I Type 3 ELISA kit (Novus Biologicals, NBP3–00456), according to the manufacturer’s instructions. Briefly, a 96-well microplate was coated with an anti-mouse TNNI3/cTnI primary antibody (Capture Antibody Solution). Standard solution or samples (100 μL) were added to the plate and incubated for 90 min at 37 °C. […]
(In general: An ELISA detects its analyte on a solid surface through an enzyme-linked reagent.)

The next assay concerns iAMs. Briefly: Cardiomyocyte hypertrophy assay: CSA of iAMs after AngII, also with PD98059. The class given is cell-based, rat. The procedure:
iAMs were seeded at a density of 10^4 cells/well in differentiation medium in 24-well plates (Greiner Bio-One, 662160) and differentiated over 9 days (d0 = day of seeding). […] To determine CSA, cells were fixed with 4% paraformaldehyde (PFA, Thermo Fisher Scientific, 043368.9 M) for 30 min at 4 °C. Cells were washed thrice with PBS and permeabilized by incubation with 0.1% Triton X-100 (Merck, 10789704001) for 10 min at RT. iAMs were stained with Alexa Fluor 568 phalloidin (Thermo Fisher Scientific, A12380) in 1% BSA-PBS solution for 1 h at RT. After washing 3 times with PBS, DAPI (Merck, D9542) was added. Images were obtained by fluorescence microscopy (Celena S).
CSA was quantified using an automated algorithm, custom-made in Python[67]. The mode mD (maximum of the histogram) of DAPI intensities (excluding 0) was determined and binary segmentation of nuclei was created with threshold mD + SDD (with SDD the SD of DAPI intensities). Distinct objects with an area less than 500 pixels and nuclei where the average overlapping iAM signal was less than mdA + 0.5 SDA (with mdA and SDA the median and SD of the Alexa Fluor 568 intensity, respectively) were removed. […]

Assay [2] relates to Akt phosphorylation (pAkt/Akt). The arrangement: method as in PMID 14654373. The note with it: cited from earlier work.
[3] abbreviates: AngII/EF-1, male wild type mice, EF-1 2 mg/kg/day, single animals, 2 mg/kg/day.

`O=C(NC1CC1)C(Sc1nc2ccccc2c(=O)n1C1CCCC1)c1ccccc1` (stereo not shown) [EF-1]: in assay [1] (setting [3]), the “Col1a1 mRNA in heart, normalized FC compared to Ctrl” value was 0.89 and 1.45 and 5.23 and 1.1 and 0.7 and 1.4 and 1.83 and 0.45; the “Col3a1 mRNA in heart, normalized FC compared to Ctrl” value is 0.3868 and 1.25 and 2.15 and 0.45 and 0.1877 and 2.4002 and 0.7979 and 0.9965; the “Nppa mRNA in heart, normalized FC compared to Ctrl” value is 0.84 and 6.51 and 3.53 and 3.93 and 1.08 and 3.77 and 5.6 and 2.74 and 3.12. Moreover, in assay [1] (male wild type mice), the “effect on AngII-induced Col1a1 and Col3a1 mRNA expression (in words)” value was “significantly reduced”; the “effect on atrial natriuretic peptide (Nppa) expression (in words)” value is reported as “significantly decreased”. Also, the “effect on DOX-induced increase in cTnI plasma levels (in words)” value with Erbb4-null mice (female Erbb4-null mice) is listed as “did not prevent the increase in cTnI plasma levels”. In the assay on Erbb4-null mice (male+female Erbb4-null mice, DOX/EF-1 group, individual animals, Fig. 6d), the “In vivo DOX experiment in male+female Erbb4-null mice with EF-1 (cTnI)” value is 3.884 and 54.574 and 87.9141 and 7.084 and 54.129 and 15.8453 and 39.5225 and 62.9332. In addition, the “anti-hypertrophic effect of EF-1 under ERK1/2 pathway inhibition (PD98059) (in words)” value in the assay with iAMs is listed as “blocked upon inhibition of the ERK1/2 pathway”. Further, in the assay on iAMs (EF-1 4–32 µM), the “effect on AngII-induced increase in CSA (in words)” value was “dose-dependently attenuated”.

Consider neuregulin-1 [NRG1], for which the “time of peak NRG1-induced Akt phosphorylation” value in assay [2] is 15 min.
